Where no end group is shown, it is not given here.

Holding throughout (type): in vivo
Series [1] deals with zebrafish embryos exposed to copper. Description: Hatching rate under copper overexposure conditions. How it is done: Through hatching rate examination, the activities of CP002 and CP002S were analyzed in zebrafish embryos exposed to copper. Specifically, the development process of fertilized eggs obtained by mating male and female wild-type zebrafish was safely maintained in an incubator. At 24 hours after fertilization, normally grown embryos were dispensed into a 24-well plate by 13 subjects and maintained under copper overexposure conditions. The dispensed subjects were treated with CP002 (5, 10 μM), CP002S (5, 10 μM), DPA (5, 10 μM), or TETA (5, 10 μM). From 48 hours to 52, 56, 60, 72, and 80 hours after fertilization (24 hours after treatment) when hatching started, the number of hatched subjects in each group was examined. A negative control group in the experiment was a 0.1% DMSO treated group (normal group) and a copper overexposed group (4 μM CuSO4), and a positive control group was a CP002 treated group; a DPA (penicillamine/D-Penicillamine) treated group; and a TETA (trientine/Trientine) treated group. The DPA and TETA were drugs that have been used as therapeutic agents for Wilson's disease and copper overexposure in the related art. The results of examining the hatching rate were illustrated in FIG. 9.

Series [2] deals with myelinated cells in the nervous system of zebrafish embryos under copper overexposure. Put plainly: Myelination defect of cranial ganglia in copper overexposure nervous system model (fluorescence microscopy). Particulars: 6 days of drug treatment; for subjects expressing the fluorescent protein (cranial ganglia): with copper, concentration not given. As for the experimental part:
The development process of fertilized eggs obtained by mating male and female wild-type zebrafish was safely maintained in an incubator (28.5° C.). At 24 hours after fertilization, normally grown embryos were dispensed into a 24-well plate by 10 subjects and maintained under copper overexposure conditions. To examine the developmental defects of myelinated cells in the nervous system due to copper overexposure and a therapeutic effect of a multi-copper oxidase peptide, CP002S (10 μM) was treated. After 6 days of drug treatment, the subjects were anesthetized with tricaine and placed in 3% methylcellulose. The myelination defect of cranial ganglia (Cg) was observed through fluorescence microscopy, and fluorescent proteins were divided into a normal and a defect according to an expression level. A negative control group in the experiment was a 0.1% DMSO treated group (normal group) and a copper overexposed group, and a positive control group was a DPA (penicillamine/D-Penicillamine) treated group; and a TETA (trientine/Trientine) treated group. The results observed with a fluorescence microscope were illustrated in FIG. 10A, and the results of analyzing the therapeutic effect based on the fluorescence microscope observation results were illustrated in FIG. 10B.

Series [3] deals with zebrafish embryos under copper overexposure conditions. Description: Cardiotoxicity (heart rate) in copper-overexposed nervous system model. How it is done:
The development process of fertilized eggs obtained by mating male and female wild-type zebrafish was safely maintained in an incubator (28.5° C.). At 24 hours after fertilization, normally grown embryos were dispensed into a 24-well plate by 20 subjects and maintained under copper overexposure conditions. On 4.5 days after treatment (5.5 days after fertilization), 7 subjects per group were randomly selected, 3% methylcellulose was put in a hole slide glass, and the heart of each subject was located on the hole slide glass to be observed with the naked eye through a stereoscopic microscope lens and observed under a microscope. The heart rate was measured together with the movement of the atria and the ventricles for 20 seconds for each subject in each group to be converted to a heart rate per minute and the average heart rate for each group was compared through a PRISM (Bonfferroni's Multiple Comparison Test, One-way ANOVA) program. In addition, the heart rate inhibition rate was calculated as follows using an average heart rate of the control group. Heart rate inhibition rate=[(average heart rate by group−average heart rate in control group)×100]/average heart rate in control group […] The results of measuring the heart rate in the copper overexposed model animal were illustrated in FIG. 11A, and the heart rate inhibition rate calculated based on the heart rate measurement results was illustrated in FIG. 11B.

Series [4] concerns wild-type zebrafish fertilized eggs. Description: Developmental toxicity analysis of multi-copper oxidase-derived peptides (number of surviving subjects, viability). As for the experimental part:
The developmental toxicity of CP001 (SEQ ID NO: 3) and CP002 (SEQ ID NO: 4), which were multi-copper oxidase-derived peptides, was analyzed. Specifically, fertilized eggs were obtained by mating wild-type zebrafish. After the obtained fertilized eggs were maintained in an incubator for 24 hours, 7 subjects were dispensed into each well of a 24-well plate. The dispensed subjects were treated with CP001 and CP002 at various concentrations (10, 50, and 100 μM). After treatment with the CP001 and CP002, the number of surviving subjects at 2, 6, 22, and 36 hours was confirmed using a microscope, and the viability was calculated based on the results. The control group of the experiment was treated with 0.1% DMSO. The result of confirming the number of surviving subjects was illustrated in FIG. 5A and the calculation result of the viability was illustrated in FIG. 5B.
The experiment was performed in the same method as described above, and the treatment concentrations of CP001 and CP002 were as follows. • CP001: 1 μM, 4 μM • CP002: 5 μM, 10 μM

Series [5] concerns wild-type zebrafish embryos. Put plainly: Abnormal blood deposition in tissue by hematological staining after ceruloplasmin mRNA injection. Particulars: 180 pg or 350 pg mRNA injected into embryos at 1 to 4 cell stages; 48 hours after injection; compared to normal group. How it is done:
Specifically, the ceruloplasmin gene (SEQ ID NO: 1) derived from Octopus minor obtained in Example 1 was treated with restriction enzymes Cla 1 and Xho 1, and inserted into a pCS2+ expression vector. A restriction enzyme Sac II was treated to the pCS2+ expression vector into which the ceruloplasmin gene was inserted, to prepare linear DNA. An mRNA using the linear DNA as a template was synthesized by an in vitro transcription (Sp6, Invitrogen) method.
After obtaining fertilized eggs by mating wild-type zebrafish, embryos at 1 to 4 cell stages were arranged on an injection plate. After loading the synthesized ceruloplasmin mRNA in a microglass tube with a microloder tip, a predetermined concentration (180 pg or 350 pg) thereof was injected into the embryo using a microinjector, a picopump, and a microscope. Subjects injected with the ceruloplasmin mRNA were cultured in an incubator, and after 48 hours of injection, dark-treated with a hematological staining reagent (o-dianisidine (0.6 mg/ml), 0.01 M sodium acetate (pH 4.5), 0.65% H2O2, 40% ethanol) for 30 minutes, and then washed. After washing, a fixing solution (4% paraformaldehyde) was treated to the subject injected with the ceruloplasmin mRNA, and reacted for at least 1 hour. The subjects injected with the immobilized ceruloplasmin mRNA were placed in 80% glycerol/20% PBS, and photographed under a stereoscopic microscope. […]

[6] abbreviates: 10 μM, 72 hours after fertilization.
Where [7] appears, read: 10 μM, 80 hours after fertilization.
The mark [8] stands for this setting: copper overexposure, 5.5 days after fertilization, concentration not given.
Setting [9] is: 5 μM, 48 hours after fertilization.
[10] abbreviates: 5 μM, 52 hours after fertilization.
Setting [11] is: 10 μM, 48 hours after fertilization.
Where [12] appears, read: 10 μM, 52 hours after fertilization.

As for `CC(C)(S)[C@@H](N)C(=O)O` [DPA, D-Penicillamine], the hatching rate in series [1] (5 μM, 80 hours after fertilization) amounted to 45.4%; in series [1] (setting [6]), 36.3%; in series [1] (setting [7]), 81.8%. Also, the “subjects expressing the fluorescent protein (cranial ganglia)” value in series [2] is reported as 100%.
In turn, `NCCNCCNCCN` [TETA, Trientine] returned a heart rate in series [3] (setting [8]) of 148 beats per minute. Moreover, the “heart rate increase compared to the control group (heart rate inhibition rate)” value in series [3] (setting [8]) came out at 3.5%. The hatching rate in series [1] (setting [9]) amounted to 12.5%; in series [1] (setting [10]), 75%; in series [1] (5 μM, 56 hours after fertilization), 100%; in series [1] (setting [11]), 30.7%; in series [1] (setting [12]) it was 84.6%; in series [1] (setting [6]), 92.3%. For the same molecule, in series [1] (setting [7]), the hatching rate was 100%. Further, the “subjects expressing the fluorescent protein (cranial ganglia)” value in series [2] came to 80%.
In turn, GKWLLHCHVDDHIIGGMSAIY [CP002] gave a heart rate in series [3] (setting [8]) of 132 beats per minute. In addition, in series [3] (zebrafish, in vivo), the “heart rate decrease compared to the normal group (heart rate inhibition rate)” value is 7.7%. Moreover, the developmental toxicity entry in series [4] (10 μM, surviving subjects at 2, 6, 22, 36 hours) is on record as “developmental toxicity was not shown”; in series [4] (50 to 100 μM, surviving subjects at 2, 6, 22, 36 hours) it was “developmental toxicity was confirmed”. Also, the “developmental toxicity (number of surviving subjects and viability)” value in series [4] (5 or 10 μM) is on record as “there was no developmental toxicity”.
GSWLVKCHVHDHYVGGMETLL [CP001]: the developmental toxicity entry in series [4] (5 μM) is “developmental toxicity was not confirmed”; in series [4] (10 to 100 μM, surviving subjects at 2, 6, 22, 36 hours), “developmental toxicity was confirmed”. For the same molecule, the “developmental toxicity (number of surviving subjects and viability)” value in series [4] (1 or 4 μM) is listed as “there was no developmental toxicity”.
On to HCHVDDHIIGGM [CP002S], for which the heart rate in series [3] (10 μM, copper overexposure, 5.5 days after fertilization) turned out to be 135 beats per minute. For the same molecule, the hatching rate in series [1] (setting [9]) is recorded as 10%; in series [1] (setting [10]) it was 20%; in series [1] (5 μM, 72 hours after fertilization), 100%; in series [1] (setting [11]) it was 80%; in series [1] (setting [12]), 100%. The “subjects with fluorescent protein expression in the cranial ganglia” value in series [2] (10 μM with copper) is listed as “all subjects”.
For the molecule “ceruloplasmin mRNA: mRNA synthesized by in vitro transcription from the Octopus minor ceruloplasmin gene (SEQ ID NO: 1)”, the “blood deposition in tissue (o-dianisidine hematological staining)” value in series [5] is given as “abnormal blood deposition in tissue was observed”.

Values taken from patent US20230234993A1, “COMPOSITION FOR PREVENTING OR TREATING NEUROLOGICAL DISEASES RELATED TO COPPER METABOLISM, COMPRISING MULTI-COPPER OXIDASE PEPTIDE” (NATIONAL MARINE BIODIVERSITY INSTITUTE OF KOREA, priority 2020, published 2023).
